≈ marks a conversion by molar mass, not a printed value.
Experiments:
A. baumannii AB5075 [1] = experiment: Murine dorsal wound infection model (neutropenic BALB/c mice), wound area measurement and gross pathology; format: in vivo, Acinetobacter baumannii
A. baumannii AB5075 [2] = experiment: Murine dorsal wound infection model, percent weight change; format: in vivo, Acinetobacter baumannii; settings: for median loss of infection-day body weight: Day 1 post-infection; for maximal median loss of infection-day body weight: maximal loss over days 1 through 6 post-infection; for duration of significantly less weight loss than placebo: post-infection, Kruskal-Wallis test followed by Dunn's post-test
Procedure: All procedures were performed in accordance with protocol IB02-10 that was approved by the Walter Reed Army Institute of Research (WRAIR)/Navy Medical Research Center (NMRC) Institutional Animal Care and Use Committee (Silver Spring, Md.). Mice received 150 mg/kg and 100 mg/kg cyclophosphamide intraperitoneal (IP) injections, before wounding and infection, on days −4 and −1, respectively (22, 24). On Day 0, the day of wounding and inoculum, mice were anesthetized with ketamine 130 mg/kg (KETASET®, Fort Dodge Animal Health, Fort Dodge, Iowa), xylazine 10 mg/kg (ANASED®, Lloyd Inc. Shenandoah, Iowa), and buprenorphine 0.05 mg/kg (Hospira Inc., Lake Forest, Ill.) injections. Hair was clipped from the cervical to mid-lumbar dorsum, and the skin scrubbed with iodine solution followed by an ethanol rinse. A 6.0 mm disposable skin biopsy punch (VisiPunch, Huot Instruments, LLC, Menomonee Falls, Wis.) was used to create a full-thickness skin defect overlying thoracic spinal column and the adjacent musculature. Twenty-five μL containing 5.0×10^4 AB5075 cells in a PBS suspension were pipetted into the wound, and allowed to absorb for three minutes. A circular cutout (30 mm diameter) of transparent dressing (TEGADERM™Roll, 3M Health Care, St. Paul, Minn.) was placed over the wound and secured with tissue adhesive (VETBOND™, 3M Animal Care, St. Paul, Minn.). […] However, the size of the wound was increased to 6 mm in order to facilitate subsequent punch biopsies to measure bacterial burden in the wound tissue.
(§1) Beginning four hours post-inoculation, mice were treated with either rifampin at 25 mg/kg IP injection once daily, doxycycline 25 mg/kg IP injection twice daily, or an equivalent vehicle control over the course of a six day treatment period (25, 26). On Day 7 the transparent dressing was removed, treatment discontinued, and the wound monitored for closure through Day 25.
All statistical analyses were carried out using Graphpad Prism software. […] CFU burdens were compared via the Kruskal-Wallis test followed by Dunn's multiple comparison tests. All results were considered significant if p<0.05.

A. baumannii AB5075 [3] = experiment: Murine dorsal wound infection model, CFU burden in wound tissue (4 mm biopsy punch); format: in vivo, Acinetobacter baumannii
A. baumannii AB5075 [4] = experiment: Murine dorsal wound infection model, PNA-FISH examination of AB5075 localization in wound tissue; format: in vivo, Acinetobacter baumannii; settings: Day 1
Procedure: All procedures were performed in accordance with protocol IB02-10 that was approved by the Walter Reed Army Institute of Research (WRAIR)/Navy Medical Research Center (NMRC) Institutional Animal Care and Use Committee (Silver Spring, Md.). Mice received 150 mg/kg and 100 mg/kg cyclophosphamide intraperitoneal (IP) injections, before wounding and infection, on days −4 and −1, respectively (22, 24). On Day 0, the day of wounding and inoculum, mice were anesthetized with ketamine 130 mg/kg (KETASET®, Fort Dodge Animal Health, Fort Dodge, Iowa), xylazine 10 mg/kg (ANASED®, Lloyd Inc. Shenandoah, Iowa), and buprenorphine 0.05 mg/kg (Hospira Inc., Lake Forest, Ill.) injections. […]
as §1
One mouse from each treatment group (placebo, rifampin, and doxycycline) and from representative time points (Days 1, 3, and 7) were sacrificed in order to characterize the dissemination of AB5075 within wound tissue via peptide nucleic acid fluorescence in situ hybridization (PNA-FISH) (33). […]

A. baumannii AB5075 [5] = experiment: Murine dorsal wound infection model, time course histopathology of wounds (H&E); format: in vivo, Acinetobacter baumannii
A. baumannii AB5075 [6] = experiment: Murine dorsal wound infection model, SEM analysis of biofilm on occlusive dressings and wound tissue; format: in vivo, Acinetobacter baumannii
A. baumannii AB5075 [7] = settings: cited from earlier work
[8] = Day 3 post-infection, BALB/c mice, IP treatment from 4 h post-inoculation (rifampin 25 mg/kg once daily, doxycycline 25 mg/kg twice daily)
[9] = Day 8 post-infection, one day after occlusive dressing removed, six day IP treatment
[10] = Day 15 post-infection, six day IP treatment
[11] = Day 21 post-infection, six day IP treatment

SMILES	median wound size (A. baumannii AB5075 [1]; [8])	median wound size (A. baumannii AB5075 [1]; [9])	median wound size (A. baumannii AB5075 [1]; [10])	median wound size (A. baumannii AB5075 [1]; [11])	median loss of infection-day body weight (A. baumannii AB5075 [2])	maximal median loss of infection-day body weight (A. baumannii AB5075 [2])	duration of significantly less weight loss than placebo (A. baumannii AB5075 [2])	median CFU burden (A. baumannii AB5075 [3]; 3 days post-infection)	median CFU burden (A. baumannii AB5075 [3]; Day 7 post-infection)	median CFU burden (A. baumannii AB5075 [3]; after 24 hours of infection)	reduction of median CFU burden versus placebo (A. baumannii AB5075 [3]; after 24 hours of infection)	A. baumannii cells in wound bed by Acinetobacter-specific PNA probe (A. baumannii AB5075 [4])	histopathology of wound (H&E) (A. baumannii AB5075 [5]; Day 15)	histopathology of wound (H&E) (A. baumannii AB5075 [5]; Day 23)	biofilm on occlusive dressing by SEM (A. baumannii AB5075 [6]; Day 3 (rifampin: Days 3 or 7) post-infection)	bacteria on occlusive dressing by SEM (A. baumannii AB5075 [6]; one day post-infection)	MIC (A. baumannii AB5075 [7])
CO[C@H]1/C=C/O[C@@]2(C)Oc3c(C)c(O)c4c(O)c(c(/C=N/N5CCN(C)CC5)c(O)c4c3C2=O)NC(=O)/C(C)=C\C=C\[C@H](C)[C@H](O)[C@@H](C)[C@@H](O)[C@@H](C)[C@H](OC(C)=O)[C@@H]1C [rifampin]	35.0 mm^2	34.5 mm^2	5.5 mm^2	0.0 mm^2	6.7%	6.8%	5 days	4.7×10^4 CFU per 4 mm tissue biopsy punch	6.1×10^5 CFU per 4 mm tissue biopsy punch	5.7×10^5 CFU per 4 mm tissue biopsy punch	1 log	clearance of A. baumannii cells below the level of detection at all levels of the wound bed	re-epithelization over the wound was observed	signs of contractile healing and re-epithelized wound beds	no biofilm formation was observed on dressings	no substantial amount of bacteria observed on the dressing	4.0 µg/mL (≈ 4.86 µM)
C[C@H]1c2cccc(O)c2C(=O)C2=C(O)[C@]3(O)C(=O)C(C(N)=O)=C(O)[C@@H](N(C)C)[C@@H]3[C@@H](O)[C@@H]21 [doxycycline]	31.0 mm^2	29.0 mm^2	2.0 mm^2	0.0 mm^2	5.3%	11.8%	4 days	5.0×10^4 CFU per 4 mm tissue biopsy punch	6.2×10^5 CFU per 4 mm tissue biopsy punch	5.9×10^5 CFU per 4 mm tissue biopsy punch	–	–	–	–	–	–	–
